Experimental data: patent US12269800B2, “Delivery of therapeutic alkaloid compounds” (priority 2021, dated 2025)
Values joined by “and” are separate entries in the source; they are usually repeats but may differ in a detail not shown here. Equal entries are not always repeated. Where two headings read alike, the source gives them in different places.

Legend:
[1] = Hydrolysis Assay of Example A2, Condition 1 (SGF with pepsin, pH 1.5, 37° C.); type: physicochemical; details: for Condition 1 Conversion (%), second value of a/b: value after the slash
[2] = 5 µM
[3] = 5 µM; remark: listed apart in the source
Procedure: 50 uL aliquots of positive controls and test compounds spiked into rat or human plasma (n=2) were added to a pre-warmed plate (37° C.) and shaken at 50 rpm. At each respective time point, the reaction was stopped by adding 500 μL of acetonitrile containing internal standards (100 nM aprozolam, 200 nM caffeine, 100 nM tolbutamide). All samples were vortexed for 10 minutes, followed by centrifugation at 3,220 g for 30 minutes to precipitate proteins. 100 μL of the supernatant is transferred to a new plate. The supernatant will be diluted with ultrapure water according to the LC-MS signal response and peak shape.

[4] = SGF with pepsin pH 1.5, 37° C., 0.5 mM, time 1 min
[5] = SGF with pepsin pH 1.5, 37° C., 0.5 mM, time 5 min
[6] = SGF with pepsin pH 1.5, 37° C., 0.5 mM, time 30 min
[7] = SGF with pepsin pH 1.5, 37° C., 0.5 mM, time 1 h
[8] = SGF with pepsin pH 1.5, 37° C., 0.5 mM, time 4 h
[9] = SGF with pepsin pH 1.5, 37° C., 0.5 mM, time 24 h
[10] = SGF with pepsin pH 1.5, 37° C., time 1 h
[11] = SGF with pepsin pH 1.5, 37° C., time 4 h
[12] = SGF with pepsin pH 1.5, 37° C., time 24 h
[13] = SGF with pepsin pH 1.5, 37° C., time 1 min
[14] = SGF with pepsin pH 1.5, 37° C., time 5 min
[15] = SGF with pepsin pH 1.5, 37° C., time 30 min

Compound	Condition 1 Conversion (%) [1, 4] [%]	Condition 1 Conversion (%) [1, 5] [%]	Condition 1 Conversion (%) [1, 6] [%]	Condition 1 Conversion (%) [1, 7] [%]	Condition 1 Conversion (%) [1, 8] [%]	Condition 1 Conversion (%) [1, 9] [%]	other results
COc1ccc([C@]23CCN(C)[C@H]2CC2(CC3)OCCS2)cc1OC (stereo partly shown) [Compound 69]	0	0	0	0	0	0	–
COc1ccc([C@@]23CCN(C)[C@@H]2CC2(CC3)OCCS2)cc1OC (stereo partly shown) [Compound 070]	0	0	0	0	0	0	–
COc1ccc([C@]23CCN(C)[C@H]2CC2(CC3)OC[C@@H](c3ccccc3)O2)cc1OC (stereo partly drawn) [Compound 081, (3′aS,4R,7′aS)-3′a-(3,4-dimethoxyphenyl)-1′-methyl-4-phenyl-spiro[1,3-dioxolane-2,6′-2,3,4,5,7,7a-hexahydroindole]]	0	0	0	0	0	0	–
COc1ccc([C@]23CCN(C)[C@H]2CC2(CC3)OC[C@H](c3cccnc3)O2)cc1OC (stereo partly drawn) [Compound 109, (3′aS,7′aS)-3′a-(3,4-dimethoxyphenyl)-1′-methyl-4-(3-pyridyl)spiro[1,3-dioxolane-2,6′-2,3,4,5,7,7a-hexahydroindole]]	0	0	0	0	0	0	–
COc1ccc([C@]23CCN(C)[C@H]2CC2(CC3)OCC(c3ccncc3)O2)cc1OC (stereo partly drawn) [Compound 110, (3′aS,7′aS)-3′a-(3,4-dimethoxyphenyl)-1′-methyl-4-(4-pyridyl)spiro[1,3-dioxolane-2,6′-2,3,4,5,7,7a-hexahydroindole]]	0	0	0	0	0	0	–
COc1cccc(C2COC3(CC[C@@]4(c5ccc(OC)c(OC)c5)CCN(C)[C@H]4C3)O2)c1 (stereo partly drawn) [Compound 111, (3′aS,7′aS)-3′a-(3,4-dimethoxyphenyl)-4-(3-methoxyphenyl)-1′-methyl-spiro[1,3-dioxolane-2,6′-2,3,4,5,7,7a-hexahydroindole]]	0	0	0	0	0	0	–
COc1ccc([C@]23CCN(C)[C@H]2CC2(CC3)OCC(c3cccc([N+](=O)[O-])c3)O2)cc1OC (stereo partly drawn) [Compound 113, (3′aS,7′aS)-3′a-(3,4-dimethoxyphenyl)-1′-methyl-4-(3-nitrophenyl)spiro[1,3-dioxolane-2,6′-2,3,4,5,7,7a-hexahydroindole]]	0	0	0	0	0	0	–
COc1ccc([C@@]23CCC(=NNCCc4ccccc4)C[C@@H]2N(C)CC3)cc1OC [Compound 159, N-[[(3aS,7aS)-3a-(3,4-dimethoxyphenyl)-1-methyl-2,3,4,5,7,7a-hexahydroindol-6-ylidene]amino]-2-phenyl-ethanamine]	–	–	–	–	–	–	Condition 1 Conversion (%) ([1]; pH 1.5): 77% and 91% and 100% (2×)
COc1ccc([C@@]23CCC(=NNC(N)=O)C[C@@H]2N(C)CC3)cc1OC [Compound 197, [[(3aS,7aS)-3a-(3,4-dimethoxyphenyl)-1-methyl-2,3,4,5,7,7a-hexahydroindol-6-ylidene]amino]urea]	–	–	–	–	–	–	Condition 1 Conversion (%) ([1]; pH 1.5): 0%
COc1ccc([C@@]23CCC(=NOCC(=O)OC(C)(C)C)C[C@@H]2N(C)CC3)cc1OC [Compound 202, tert-butyl 2-[[(3aS,7aS)-3a-(3,4-dimethoxyphenyl)-1-methyl-2,3,4,5,7,7a-hexahydroindol-6-ylidene]amino]oxyacetate]	–	–	–	1.12	3.01	64.4	Condition 1 Conversion (%), second value of a/b [1, 10]: 0%; Condition 1 Conversion (%), second value of a/b [1, 11]: 6.42%; Condition 1 Conversion (%), second value of a/b [1, 12]: 6.42%
COc1ccc([C@@]23CC/C(=N\OC(C)(C)OC)C[C@@H]2N(C)CC3)cc1OC [Compound 204, (E,3aS,7aS)-3a-(3,4-dimethoxyphenyl)-N-(1-methoxy-1-methyl-ethoxy)-1-methyl-2,3,4,5,7,7a-hexahydroindol-6-imine]	100	100	0	0	0	0	Condition 1 Conversion (%), second value of a/b [1, 13]: 0%; Condition 1 Conversion (%), second value of a/b [1, 14]: 0%; Condition 1 Conversion (%), second value of a/b [1, 15]: 100%; Condition 1 Conversion (%), second value of a/b [1, 10]: 100%; Condition 1 Conversion (%), second value of a/b [1, 11]: 100%; Condition 1 Conversion (%), second value of a/b [1, 12]: 100%
COc1ccc([C@@]23CCC(=NOC4CCCCO4)C[C@@H]2N(C)CC3)cc1OC (stereo partly drawn) [Compound 206, (3aS,7aS)-3a-(3,4-dimethoxyphenyl)-1-methyl-N-tetrahydropyran-2-yloxy-2,3,4,5,7,7a-hexahydroindol-6-imine]	–	–	1.41	7.83	0	0	Condition 1 Conversion (%), second value of a/b [1, 15]: 0%; Condition 1 Conversion (%), second value of a/b [1, 10]: 2.57%; Condition 1 Conversion (%), second value of a/b [1, 11]: 77.75%; Condition 1 Conversion (%), second value of a/b [1, 12]: 100%
COc1ccc([C@]23CCN(C)[C@H]2CC2(CC3)OCC(C)O2)cc1OC (stereo partly drawn) [Compound 211, (3′aS,7′aS)-3′a-(3,4-dimethoxyphenyl)-1′,4-dimethyl-spiro[1,3-dioxolane-2,6′-2,3,4,5,7,7a-hexahydroindole]]	0	0	0	0	0	0	–
C=CC1OC2(CC[C@@]3(c4ccc(OC)c(OC)c4)CCN(C)[C@H]3C2)OC1C=C (stereo partly drawn) [Compound 213, (3′aS,7′aS)-3′a-(3,4-dimethoxyphenyl)-1′-methyl-4,5-divinyl-spiro[1,3-dioxolane-2,6′-2,3,4,5,7,7a-hexahydroindole]]	0	0	0	0	0	0	–
COc1ccc([C@]23CCN(C)[C@H]2CC2(CC3)OCC(COCc3ccccc3)O2)cc1OC (stereo partly shown) [Compound 215]	0	0	6.1	15.2	25.8	46.8	–
COc1ccc([C@@]23CC/C(=N/OC(C)(C)OC)C[C@@H]2N(C)CC3)cc1OC [Compound 219, (Z,3aS,7aS)-3a-(3,4-dimethoxyphenyl)-N-(1-methoxy-1-methyl-ethoxy)-1-methyl-2,3,4,5,7,7a-hexahydroindol-6-imine]	100	100	0	0	0	0	Condition 1 Conversion (%), second value of a/b [1, 13]: 0%; Condition 1 Conversion (%), second value of a/b [1, 14]: 0%; Condition 1 Conversion (%), second value of a/b [1, 15]: 100%; Condition 1 Conversion (%), second value of a/b [1, 10]: 100%; Condition 1 Conversion (%), second value of a/b [1, 11]: 100%; Condition 1 Conversion (%), second value of a/b [1, 12]: 100%
COc1ccc([C@@]23CCC(OC(=O)c4c(C)cc(C)cc4C)=C[C@@H]2N(C)CC3)cc1OC [Compound 356, (3aS,7aS)-3a-(3,4-dimethoxyphenyl)-1-methyl-2,3,3a,4,5,7a-hexahydro-1H-indol-6-yl 2,4,6-trimethylbenzoate]	–	–	–	–	–	–	Rat Plasma Prodrug (%) ([2]; 0 min): 100.0%; Rat Plasma Prodrug (%) ([2]; 10 min): >99%; Rat Plasma Prodrug (%) ([2]; 30 min): >99%; Rat Plasma Prodrug (%) ([2]; 60 min): >99%; Rat Plasma Prodrug (%) ([2]; 120 min): >99%; Rat Plasma Prodrug (%) ([2]; 240 min): 95.8%; Human Plasma Prodrug (%) ([3]; 0 min): 100.0%; Human Plasma Prodrug (%) ([3]; 10 min): >99%; Human Plasma Prodrug (%) ([3]; 30 min): >99%; Human Plasma Prodrug (%) ([3]; 60 min): >99%; Human Plasma Prodrug (%) ([3]; 120 min): >99%; Human Plasma Prodrug (%) ([3]; 240 min): >99%
CCCCCCCC(=O)OC1=C[C@@H]2N(C)CC[C@]2(c2ccc(OC)c(OC)c2)CC1 [Compound 395, (3aS,7aS)-3a-(3,4-dimethoxyphenyl)-1-methyl-2,3,3a,4,5,7a-hexahydro-1H-indol-6-yl octanoate]	–	–	–	–	–	–	Rat Plasma Prodrug (%) ([2]; 0 min): 100.0%; Rat Plasma Prodrug (%) ([2]; 10 min): 0.3%; Rat Plasma Prodrug (%) ([2]; 30 min): 0.1%; Rat Plasma Prodrug (%) ([2]; 60 min): 0.1%; Rat Plasma Prodrug (%) ([2]; 120 min): 0.1%; Rat Plasma Prodrug (%) ([2]; 240 min): 0.1%; Human Plasma Prodrug (%) ([3]; 0 min): 100.0%; Human Plasma Prodrug (%) ([3]; 10 min): 13.9%; Human Plasma Prodrug (%) ([3]; 30 min): 3.5%; Human Plasma Prodrug (%) ([3]; 60 min): 1.1%; Human Plasma Prodrug (%) ([3]; 120 min): 0.3%; Human Plasma Prodrug (%) ([3]; 240 min): 0.1%
N-[[(3aS,7aS)-3a-(3,4-dimethoxyphenyl)-1-methyl-3,4,7,7a-tetrahydro-2H-indol-6-yl]3,4-dimethoxybenzoate [Compound 302]	0	0	0	0	0	0	–
